2 molecules from ChEMBL document CHEMBL5058643, “Data for DCP probe BI-2081” (2022) can be followed below.

Activity calls are given as the source filed them. No cut-off for these calls is given here.

The target of data set [1] is T1, 5-hydroxytryptamine receptor 1A (Homo sapiens) (UniProt P08908).
T1 sequence (whole entry): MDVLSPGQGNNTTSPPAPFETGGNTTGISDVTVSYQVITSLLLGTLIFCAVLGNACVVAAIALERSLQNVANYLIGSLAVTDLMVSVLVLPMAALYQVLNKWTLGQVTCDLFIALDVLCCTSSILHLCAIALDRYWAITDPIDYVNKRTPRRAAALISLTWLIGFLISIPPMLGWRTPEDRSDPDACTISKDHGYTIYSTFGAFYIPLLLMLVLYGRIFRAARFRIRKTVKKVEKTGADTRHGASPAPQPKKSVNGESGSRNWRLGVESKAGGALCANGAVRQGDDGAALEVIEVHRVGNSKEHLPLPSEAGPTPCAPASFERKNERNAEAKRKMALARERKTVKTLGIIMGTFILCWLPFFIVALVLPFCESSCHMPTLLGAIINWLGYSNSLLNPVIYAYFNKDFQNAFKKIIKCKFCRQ
Description: 5HT1A/H Eurofins SafetyScreen44 (BI). Particulars: Compound concentration 10.0 uM.

For data set [2], the target named is T2, Alpha-1A adrenergic receptor (Homo sapiens) (UniProt P35348).
T2 sequence (whole entry): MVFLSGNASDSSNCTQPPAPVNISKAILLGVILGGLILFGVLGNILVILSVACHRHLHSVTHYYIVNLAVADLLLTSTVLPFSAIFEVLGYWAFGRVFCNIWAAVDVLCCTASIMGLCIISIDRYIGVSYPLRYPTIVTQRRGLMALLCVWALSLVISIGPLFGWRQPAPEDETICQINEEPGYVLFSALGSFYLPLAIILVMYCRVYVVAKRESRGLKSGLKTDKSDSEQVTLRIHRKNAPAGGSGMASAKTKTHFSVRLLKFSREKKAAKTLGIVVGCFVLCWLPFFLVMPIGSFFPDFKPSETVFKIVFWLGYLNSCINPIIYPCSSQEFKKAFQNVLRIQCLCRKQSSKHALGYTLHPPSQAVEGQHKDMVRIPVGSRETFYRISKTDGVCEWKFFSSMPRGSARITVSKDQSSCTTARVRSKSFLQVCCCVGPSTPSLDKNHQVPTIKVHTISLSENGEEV
The data set can be described thus: ALPHA1AH_ANTAG Eurofins SafetyScreen44 (BI). Particulars: filed as antagonist, Compound concentration 10.0 uM.

The target in data set [3] is MAO-A (amine oxidase [flavin-containing] A) (Rattus norvegicus, UniProt P21396). Description: MAO-A_ANTAG Eurofins SafetyScreen44 (BI). The arrangement: mode of action antagonist; scale not given: the % may be the effect or the level left. Conditions: compound concentration 10 uM, read-out: % Ctrl.
The target of data set [4] is Histamine H2 receptor (Homo sapiens) (UniProt P25021). Description: H2/APT/HS Eurofins SafetyScreen44 (BI). Conditions: filed as antagonist, Compound concentration 10.0 uM.
Data set [5] has as its target T3, 5-hydroxytryptamine receptor 3A (Homo sapiens) (UniProt P46098).
T3 sequence (whole entry): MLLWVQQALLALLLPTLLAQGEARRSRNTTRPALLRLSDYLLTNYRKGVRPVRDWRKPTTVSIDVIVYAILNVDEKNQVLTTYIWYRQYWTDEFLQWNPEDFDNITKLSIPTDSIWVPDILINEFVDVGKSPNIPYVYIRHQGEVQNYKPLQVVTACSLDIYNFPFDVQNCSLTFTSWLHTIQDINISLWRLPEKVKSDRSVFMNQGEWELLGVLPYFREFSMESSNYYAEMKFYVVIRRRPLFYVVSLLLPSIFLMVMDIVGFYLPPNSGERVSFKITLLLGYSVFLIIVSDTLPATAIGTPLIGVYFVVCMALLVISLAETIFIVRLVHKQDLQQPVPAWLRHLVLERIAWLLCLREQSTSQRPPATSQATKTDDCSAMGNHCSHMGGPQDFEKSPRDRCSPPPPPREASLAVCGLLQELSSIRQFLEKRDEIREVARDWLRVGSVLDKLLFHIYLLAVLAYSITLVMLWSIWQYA
The data set can be described thus: 5HT3/H Eurofins SafetyScreen44 (BI). Conditions: Compound concentration 10.0 uM.

The target in another data set is hERG (KCNH2) (Homo sapiens, UniProt Q12809). The data set can be described thus: HERG_DOFETILIDE Eurofins SafetyScreen44 (BI). The arrangement: mode of action inhibitor. Conditions: probe [3H] Dofetilide, compound concentration 10 uM, read-out: % Ctrl.
Data set [6] concerns the target 5-hydroxytryptamine receptor 2A (Homo sapiens) (UniProt P28223). Description: 5HT2AH_AGON Eurofins SafetyScreen44 (BI). Conditions: filed as agonist, Compound concentration 10.0 uM.
The target of data set [7] is Gamma-aminobutyric acid receptor subunit alpha-1 (Rattus norvegicus) (UniProt P62813). Description: GABAACENTR Eurofins SafetyScreen44 (BI). Conditions: Compound concentration 10.0 uM.
Data set [8] addresses Sigma non-opioid intracellular receptor 1 (Homo sapiens) (UniProt Q99720). Description: SIGMA1/HU Eurofins SafetyScreen44 (BI). Conditions: Compound concentration 10.0 uM.
The target in data set [9] is Androgen receptor (Rattus norvegicus) (UniProt P15207). The data set can be described thus: TESTOST/RA Eurofins SafetyScreen44 (BI). Particulars: Compound concentration 10.0 uM.
For data set [10], the target named is Interleukin-1 beta (Mus musculus) (UniProt P10749). Description: IL-1 Eurofins SafetyScreen44 (BI). Conditions: Compound concentration 10.0 uM.
The target in data set [11] is Mu-type opioid receptor (Homo sapiens) (UniProt P35372). Description: MU/HU Eurofins SafetyScreen44 (BI). Particulars: Compound concentration 10.0 uM.
The target in data set [12] is Free fatty acid receptor 1 (Homo sapiens, UniProt O14842). Description: IPOne assay.
The target in data set [13] is Glucocorticoid receptor (Homo sapiens) (UniProt P04150). The data set can be described thus: GLUCOCORTICO Eurofins SafetyScreen44 (BI). Particulars: Compound concentration 10.0 uM.
The target in data set [14] is Glutamate receptor ionotropic, kainate 1 (Rattus norvegicus) (UniProt P22756). Description: KAINATE/R Eurofins SafetyScreen44 (BI). Particulars: Compound concentration 10.0 uM.
The target of data set [15] is Voltage-dependent L-type calcium channel subunit alpha-1C (Rattus norvegicus, UniProt P22002). Description: CA+/DHPSI/RA Eurofins SafetyScreen44 (BI). Particulars: compound concentration 10 uM, read-out: % Ctrl.
The target of data set [16] is Glutamate receptor ionotropic, NMDA 1 (Rattus norvegicus) (UniProt P35439). Description: NMDAGLSI/RA Eurofins SafetyScreen44 (BI). Particulars: Compound concentration 10.0 uM.
Data set [17] has as its target Beta-1 adrenergic receptor (Homo sapiens) (UniProt P08588). Description: BETA1/HU Eurofins SafetyScreen44 (BI). Particulars: Compound concentration 10.0 uM.
The target in data set [18] is Muscarinic acetylcholine receptor M3 (Homo sapiens, UniProt P20309). The data set can be described thus: GPCRScan assay: inhibition of M3. The arrangement: radioligand conc. used [nm] 0.3 – 1.0, parental cells stable CHO.
Data set [19] addresses Protein kinase C alpha type (Mus musculus) (UniProt P20444). The data set can be described thus: PHORBOLE/M Eurofins SafetyScreen44 (BI). Conditions: Compound concentration 10.0 uM.
For data set [20], the target named is Voltage-dependent N-type calcium channel subunit alpha-1B (Rattus norvegicus) (UniProt Q02294). The data set can be described thus: CA+/N/RA Eurofins SafetyScreen44 (BI). Conditions: Compound concentration 10.0 uM.
The target in data set [21] is Sodium-dependent serotonin transporter (Homo sapiens) (UniProt P31645). The data set can be described thus: 5HTTRANS/HU Eurofins SafetyScreen44 (BI). Conditions: Compound concentration 10.0 uM.
Data set [22] addresses Platelet-activating factor receptor (Homo sapiens) (UniProt P25105). Description: PAF/H Eurofins SafetyScreen44 (BI). Particulars: Compound concentration 10.0 uM.
Data set [23] addresses Endothelin receptor type B (Homo sapiens) (UniProt P24530). Description: ETB/HUM Eurofins SafetyScreen44 (BI). Conditions: Compound concentration 10.0 uM.
Data set [24] concerns the target 5-hydroxytryptamine receptor 2B (Homo sapiens) (UniProt P41595). The data set can be described thus: 5HT2B/HU Eurofins SafetyScreen44 (BI). Particulars: Compound concentration 10.0 uM.

Sequence of Muscarinic acetylcholine receptor M3 (P20309 whole entry): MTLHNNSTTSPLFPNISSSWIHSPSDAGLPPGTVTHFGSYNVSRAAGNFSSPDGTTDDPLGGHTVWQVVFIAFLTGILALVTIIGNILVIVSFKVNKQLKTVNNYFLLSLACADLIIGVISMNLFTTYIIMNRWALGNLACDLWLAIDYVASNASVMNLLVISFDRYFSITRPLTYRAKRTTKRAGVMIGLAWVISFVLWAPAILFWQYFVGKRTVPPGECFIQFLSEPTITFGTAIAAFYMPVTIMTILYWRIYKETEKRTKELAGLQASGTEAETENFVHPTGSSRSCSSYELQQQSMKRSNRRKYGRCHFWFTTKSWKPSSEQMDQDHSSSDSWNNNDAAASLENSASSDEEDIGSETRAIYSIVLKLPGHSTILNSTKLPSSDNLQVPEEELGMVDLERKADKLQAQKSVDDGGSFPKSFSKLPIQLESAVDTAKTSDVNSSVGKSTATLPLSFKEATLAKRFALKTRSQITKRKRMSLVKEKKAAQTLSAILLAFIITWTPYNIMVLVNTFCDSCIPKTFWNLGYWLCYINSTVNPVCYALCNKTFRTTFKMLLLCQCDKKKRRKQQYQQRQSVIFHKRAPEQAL
Sequence of Mu-type opioid receptor (Homo sapiens) (P35372 whole entry): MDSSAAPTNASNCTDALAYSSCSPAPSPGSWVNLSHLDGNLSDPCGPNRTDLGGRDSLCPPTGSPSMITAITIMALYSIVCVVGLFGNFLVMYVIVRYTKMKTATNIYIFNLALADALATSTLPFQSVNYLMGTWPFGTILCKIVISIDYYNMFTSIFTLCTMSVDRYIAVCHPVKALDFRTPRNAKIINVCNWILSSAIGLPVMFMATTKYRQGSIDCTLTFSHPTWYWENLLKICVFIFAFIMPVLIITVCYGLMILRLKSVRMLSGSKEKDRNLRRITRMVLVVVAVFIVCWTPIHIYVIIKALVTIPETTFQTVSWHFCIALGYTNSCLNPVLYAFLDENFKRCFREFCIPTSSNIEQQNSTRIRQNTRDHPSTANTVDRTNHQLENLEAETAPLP
Sequence of MAO-A (amine oxidase [flavin-containing] A) (P21396 whole entry): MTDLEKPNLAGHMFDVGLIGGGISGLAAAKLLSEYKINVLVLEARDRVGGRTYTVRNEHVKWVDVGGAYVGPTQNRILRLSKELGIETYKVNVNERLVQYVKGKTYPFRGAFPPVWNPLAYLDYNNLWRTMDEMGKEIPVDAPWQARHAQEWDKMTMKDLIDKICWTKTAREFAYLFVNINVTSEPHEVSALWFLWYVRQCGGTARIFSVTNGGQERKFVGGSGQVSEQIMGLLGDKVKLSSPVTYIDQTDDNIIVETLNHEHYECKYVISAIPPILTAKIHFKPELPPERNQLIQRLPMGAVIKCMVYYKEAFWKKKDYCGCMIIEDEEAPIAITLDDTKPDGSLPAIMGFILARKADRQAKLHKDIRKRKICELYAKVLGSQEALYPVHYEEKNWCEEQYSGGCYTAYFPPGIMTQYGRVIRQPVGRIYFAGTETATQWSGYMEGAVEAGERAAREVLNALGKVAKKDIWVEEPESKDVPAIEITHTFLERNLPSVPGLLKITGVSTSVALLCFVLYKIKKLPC
Sequence of Interleukin-1 beta (Mus musculus) (P10749 118-269 limits assumed): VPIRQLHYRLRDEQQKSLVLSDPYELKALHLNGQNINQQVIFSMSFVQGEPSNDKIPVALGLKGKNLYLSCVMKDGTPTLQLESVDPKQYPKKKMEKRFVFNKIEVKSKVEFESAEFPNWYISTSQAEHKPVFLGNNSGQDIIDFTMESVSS
Sequence of Voltage-dependent N-type calcium channel subunit alpha-1B (Rattus norvegicus) (Q02294 whole entry, looked up): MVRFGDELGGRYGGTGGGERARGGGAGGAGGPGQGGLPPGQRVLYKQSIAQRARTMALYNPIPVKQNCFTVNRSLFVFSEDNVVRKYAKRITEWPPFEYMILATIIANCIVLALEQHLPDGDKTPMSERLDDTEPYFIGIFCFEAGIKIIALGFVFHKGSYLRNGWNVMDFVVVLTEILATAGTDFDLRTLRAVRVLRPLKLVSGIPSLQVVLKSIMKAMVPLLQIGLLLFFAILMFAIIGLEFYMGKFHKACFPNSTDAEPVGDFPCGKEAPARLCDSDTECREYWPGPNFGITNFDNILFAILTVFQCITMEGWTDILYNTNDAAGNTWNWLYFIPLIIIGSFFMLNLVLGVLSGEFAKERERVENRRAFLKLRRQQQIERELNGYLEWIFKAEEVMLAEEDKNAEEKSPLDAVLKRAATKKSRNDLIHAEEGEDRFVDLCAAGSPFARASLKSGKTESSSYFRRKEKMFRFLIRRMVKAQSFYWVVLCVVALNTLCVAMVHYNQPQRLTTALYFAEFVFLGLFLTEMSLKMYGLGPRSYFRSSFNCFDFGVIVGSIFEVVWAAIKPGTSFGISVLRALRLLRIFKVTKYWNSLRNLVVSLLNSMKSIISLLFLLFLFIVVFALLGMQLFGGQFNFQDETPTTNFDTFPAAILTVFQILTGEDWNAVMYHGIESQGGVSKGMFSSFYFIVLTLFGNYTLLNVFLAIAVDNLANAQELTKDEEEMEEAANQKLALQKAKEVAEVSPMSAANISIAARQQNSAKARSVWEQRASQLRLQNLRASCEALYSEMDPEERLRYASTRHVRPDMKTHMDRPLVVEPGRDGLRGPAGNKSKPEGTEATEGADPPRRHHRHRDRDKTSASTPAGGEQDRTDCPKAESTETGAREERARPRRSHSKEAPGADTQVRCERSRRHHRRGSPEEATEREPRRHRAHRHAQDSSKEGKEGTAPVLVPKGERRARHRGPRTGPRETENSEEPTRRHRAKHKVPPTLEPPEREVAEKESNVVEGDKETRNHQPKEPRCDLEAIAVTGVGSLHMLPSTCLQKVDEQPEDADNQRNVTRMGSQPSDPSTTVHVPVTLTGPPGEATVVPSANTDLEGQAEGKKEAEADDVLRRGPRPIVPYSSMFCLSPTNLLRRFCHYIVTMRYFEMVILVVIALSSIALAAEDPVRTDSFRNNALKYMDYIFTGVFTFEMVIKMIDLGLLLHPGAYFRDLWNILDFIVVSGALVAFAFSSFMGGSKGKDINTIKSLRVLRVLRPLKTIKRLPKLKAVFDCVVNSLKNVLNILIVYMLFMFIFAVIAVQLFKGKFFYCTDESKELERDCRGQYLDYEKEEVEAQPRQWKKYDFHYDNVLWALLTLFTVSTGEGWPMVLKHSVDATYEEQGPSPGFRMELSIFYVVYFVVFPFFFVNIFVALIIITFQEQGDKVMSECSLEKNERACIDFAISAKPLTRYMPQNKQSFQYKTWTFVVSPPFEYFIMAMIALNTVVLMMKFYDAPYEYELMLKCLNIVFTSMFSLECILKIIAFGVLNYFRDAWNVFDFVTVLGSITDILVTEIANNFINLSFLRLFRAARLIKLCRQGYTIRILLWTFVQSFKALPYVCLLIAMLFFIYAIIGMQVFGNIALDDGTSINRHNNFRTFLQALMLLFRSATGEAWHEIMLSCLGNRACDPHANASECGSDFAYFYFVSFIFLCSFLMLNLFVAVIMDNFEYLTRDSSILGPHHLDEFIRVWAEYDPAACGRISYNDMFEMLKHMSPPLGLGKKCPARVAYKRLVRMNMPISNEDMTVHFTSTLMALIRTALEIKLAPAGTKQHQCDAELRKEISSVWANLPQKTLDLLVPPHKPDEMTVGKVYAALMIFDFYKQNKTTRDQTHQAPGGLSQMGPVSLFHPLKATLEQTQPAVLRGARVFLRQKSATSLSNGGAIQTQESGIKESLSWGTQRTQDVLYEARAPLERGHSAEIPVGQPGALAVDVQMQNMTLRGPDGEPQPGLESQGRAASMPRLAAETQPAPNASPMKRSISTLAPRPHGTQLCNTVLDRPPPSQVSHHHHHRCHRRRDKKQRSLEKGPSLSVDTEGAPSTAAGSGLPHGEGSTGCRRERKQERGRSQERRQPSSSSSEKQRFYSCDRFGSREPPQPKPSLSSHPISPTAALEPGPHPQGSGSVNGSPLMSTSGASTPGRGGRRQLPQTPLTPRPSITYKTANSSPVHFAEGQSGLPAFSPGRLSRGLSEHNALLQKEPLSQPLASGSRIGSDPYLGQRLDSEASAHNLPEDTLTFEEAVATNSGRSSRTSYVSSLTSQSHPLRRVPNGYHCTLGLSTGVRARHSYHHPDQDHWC
Sequence of Histamine H2 receptor (Homo sapiens) (P25021 whole entry): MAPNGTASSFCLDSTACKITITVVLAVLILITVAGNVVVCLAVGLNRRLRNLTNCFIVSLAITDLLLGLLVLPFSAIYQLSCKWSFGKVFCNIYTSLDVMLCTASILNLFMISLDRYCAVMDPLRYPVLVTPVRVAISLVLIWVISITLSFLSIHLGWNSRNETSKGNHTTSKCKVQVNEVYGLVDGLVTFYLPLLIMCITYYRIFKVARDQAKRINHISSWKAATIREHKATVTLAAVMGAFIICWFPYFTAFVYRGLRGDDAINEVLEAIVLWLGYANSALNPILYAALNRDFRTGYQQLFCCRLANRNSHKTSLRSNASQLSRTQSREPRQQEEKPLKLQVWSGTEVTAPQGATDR
Sequence of 5-hydroxytryptamine receptor 2B (Homo sapiens) (P41595 whole entry): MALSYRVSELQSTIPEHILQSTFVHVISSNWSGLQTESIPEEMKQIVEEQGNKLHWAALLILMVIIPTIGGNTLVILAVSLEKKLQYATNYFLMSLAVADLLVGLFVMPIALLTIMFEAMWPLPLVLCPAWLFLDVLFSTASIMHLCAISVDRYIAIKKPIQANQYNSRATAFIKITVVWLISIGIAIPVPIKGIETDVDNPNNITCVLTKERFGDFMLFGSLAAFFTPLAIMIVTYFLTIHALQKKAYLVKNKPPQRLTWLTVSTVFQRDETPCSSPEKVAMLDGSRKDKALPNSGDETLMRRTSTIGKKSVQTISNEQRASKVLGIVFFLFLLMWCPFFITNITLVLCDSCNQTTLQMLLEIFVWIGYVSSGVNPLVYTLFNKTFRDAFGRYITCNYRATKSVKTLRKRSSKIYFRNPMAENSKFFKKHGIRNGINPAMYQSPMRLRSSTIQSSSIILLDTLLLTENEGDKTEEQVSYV

Turning to `COCCCS(=O)(=O)c1cc(C)c(-c2ccc(F)c3c2CC[C@H]3Oc2ccc3c(c2)OC[C@H]3CC(=O)O)c(C)c1`, the residual activity in [1] is 103%; in data set [2] it was 95%; in [4] it was 93%; in data set [5], 106%; in [6] it was 101%. Besides, the activity at 10 µM is 94% (not active) in data set [3] and 93% (not active) at hERG (KCNH2).

Consider `Cc1cc(OCCC(C)(C)O)cc(C)c1-c1ccc(F)c2c1CC[C@H]2Oc1ccc2c(c1)OC[C@H]2CC(=O)O`, for which the residual activity was 83% in data set [7]; 91% in data set [8]; 75% in [9]; 100% in [10]; 76% in data set [11]; 67% in [13]. The residual activity in data set [14] was 117%; in data set [16], 86%; in data set [17], 98%; in [19] it was 84%; in data set [20], 113%; in data set [21], 106%. The figures for the residual activity in data set [22], in data set [23] and in [24] were 97%, 63% and 82%, respectively. For the same molecule, in data set [12], the half-maximal effective concentration (EC50) is 0.003 µM (active). Moreover, the activity at 10 µM in [15] was 90% (not active). In addition, in [18], the Ki was greater than 10 µM. In addition, the pKi in [18] is reported as less than 5.
